In US20260294864A1, “PHARMACEUTICAL COMPOSITION FOR THE TREATMENT AND PREVENTION OF HPV” (NP1 SRL, priority 2022, published 2026):

Assays:
Assay type in all cases: cell-based, human
Ca-Ski cells = assay: Anti-clonogenic activity on Ca-Ski cells; details: compared with HeLa data of FIG. 10
Source text: (§1) HeLa cells are the oldest continuous cell lines and were originally derived from a HPV18 positive metastatic cervical carcinoma (Scherer W F et al 1953). Siha cells are an epithelioid like cell line derived from a HPV16-positive invasive cervical squamous carcinoma (Friedel F et al 1970). Ca-Ski cells are a line harboring multiple copy of transcriptionally active HPV16 genomes (Baker C C et al 1984). Both Hela and Siha were a kind gift of prof MS Campo, The Beatson Institute for Cancer Research, Glasgow, Scotland. These two cell lines because of their versatility and ease of use were used for most of experiments reported. Ca-Ski cells were obtained through the courtesy of prof. Matthias Durst, at the Deutsch Krebsforschungzentrum—Heidelberg, FRG. […]
(§2) The anti-clonogenic activity was evaluated both by the current standard qualitative plating efficiency assay and by quantitative live cell imaging analysis (INCUCYTE S3 Live Cell Analysis Imaging System—Sartorius Welwyn Garden City, Hertfordshire, UK). […] The anti-clonogenic activity of the treatments was evaluated using the colony forming units (CFU) of treated versus control cultures. […] For quantitative evaluation cells were seeded in 96-well microplates at the above density and condition and allowed to grow the subsequent 8-day incubation in the INCUCYTE S3 Imaging System. […]

ME-180 cells = assay: Anti-clonogenic activity on ME-180 cells; details: compared with HeLa data of FIG. 10
Source text: as §1, §2

HPV transformed cells = assay: Anti-clonal effect on HPV transformed cells (cell line not stated); details: summary statement
Protocol: The inhibitory relative rate (IRR) (fourth column) provides an efficacy ranking of molecules.
The anti-clonogenic activity was evaluated both by the current standard qualitative plating efficiency assay and by quantitative live cell imaging analysis (INCUCYTE S3 Live Cell Analysis Imaging System—Sartorius Welwyn Garden City, Hertfordshire, UK). For qualitative plating efficiency assay cells were seeded at ‘clonal’ density (i.e., 0.5 cell/mm^2) either in medium containing the testing molecules or with plain medium and incubated without any further manipulation. After 9-14 days, according to the cell line specific proliferative index, the cultures were decanted and stained with 0.2% CV/methanol for 5 min at room temperature. All conditions were tested in triplicates in a 6-well culture plate. The anti-clonogenic activity of the treatments was evaluated using the colony forming units (CFU) of treated versus control cultures. The minimal concentration which could reduce 50% of the CFU of treated versus control culture was defined as colony-forming Inhibitory concentration (CID50). For quantitative evaluation cells were seeded in 96-well microplates at the above density and condition and allowed to grow the subsequent 8-day incubation in the INCUCYTE S3 Imaging System. Images were acquired at 12-hours intervals and colony formation and percentage of growth area covered (confluency) were then monitored through automated image analysis. The analysis parameters were as follows: segmentation adjustment=0.4; hole fill <5,000 μm^2; adjusted pixel=−2.

HeLa cells = assay: Anti-clonogenic activity on HeLa cells (plating efficiency assay / live cell imaging); details: HeLa
Protocol: Panel C and D: diagrammatic topographical maps of treatments and growth conditions on plates A and B respectively.
Panel A. Hela cells were challenged with serial twofold dilutions of 50 μM Luteolin (in columns 1-6) and 100 μM Galangin (columns 7-10). Hela control untreated cells in columns 11-12.
A total of 6 cell lines, outlined in Table 3, were used for this study. The cell lines were obtained from Research Centres of cell biology in Italy, United Kingdom and Germany. This research raised no ethical concern being based on entirely in vitro experiments using no patients' derived information or material. In compliance with National and International ethical rules, no informed consent is needed.
HeLa cells are the oldest continuous cell lines and were originally derived from a HPV18 positive metastatic cervical carcinoma (Scherer W F et al 1953). Siha cells are an epithelioid like cell line derived from a HPV16-positive invasive cervical squamous carcinoma (Friedel F et al 1970). Ca-Ski cells are a line harboring multiple copy of transcriptionally active HPV16 genomes (Baker C C et al 1984). Both Hela and Siha were a kind gift of prof MS Campo, The Beatson Institute for Cancer Research, Glasgow, Scotland. These two cell lines because of their versatility and ease of use were used for most of experiments reported. Ca-Ski cells were obtained through the courtesy of prof. Matthias Durst, at the Deutsch Krebsforschungzentrum—Heidelberg, FRG. These cells used together with Siha provide a model for the genetic instability and variability of cervical cancers. HK-168 is an immortalized, non-tumorigenic, continuous cell line derived from human skin keratinocytes in vitro transformed with whole HPV16 genome (De Marco F et al 2007). This cell line is reputed to recapitulate le biological features of transformed dysplastic cells and was used in preliminary experiments to set the experimental dosages and conditions. The ME-180 cells are a cell line harboring a few, transcriptionally active, copies of HPV68 and provide an in vitro model for dysplastic/neoplastic lesions induced by HPV with Intermediate oncogenic Risk (Yee C C et al 1985). The HaCaT cells, derived from a solar skin lesion by Petra Boukamp et al (1988) are here used as an in vitro equivalent of Ultra-Violet induced pre-neoplastic epithelial cells to rule out possible direct toxic effects of polyphenols. Both HaCaT and ME-180, were kindly donated by Prof. Matthias Durst. Hela, Siha, Ca-Ski, ME-180 and HaCaT were all grown in high glucose DMEM supplemented with 10% fetal calf serum (FCS). The HK-168 cells, which retained the ability to terminally differentiate under high Ca^2+ and FCS concentrations, were grown in K-SFM, a chemically defined medium supplemented with human EGF and bovine pituitary extract (ThermoFisher Scientific, Life Technologies, Monza—MI). Each cell line was sub-cultured twice a week at the appropriate split ratio according to the specific proliferative index. In no case antibiotics or antimycotics were added to the culture media. For the present study, all cell lines were retrieved from an in-house cell archive facility.
The anti-clonogenic activity was evaluated both by the current standard qualitative plating efficiency assay and by quantitative live cell imaging analysis ([…] S3 Live Cell Analysis Imaging System—Sartorius Welwyn Garden City, Hertfordshire, UK).

## COc1cc(/C=C/C(=O)O)ccc1O [Ferulic acid]
Ca-Ski cells
  clonal inhibition with Galangin, Chrysin or Apigenin: Superimposable results
ME-180 cells
  clonal inhibition with Galangin, Chrysin or Apigenin: Superimposable results
HPV transformed cells; combined with Galangin, Chrysin or Apigenin
  clonal inhibition in combination: a certain grade of clonal inhibition
HPV transformed cells; isolated compound
  anticlonogenic / anti-clonal effect: devoid of. any direct anticlonogenic activity
HeLa cells; 50 μM combined with Apigenin 25 μM, FIG. 9-11
  clonal inhibition in combination with Apigenin: almost complete clonal inhibition
HeLa cells; 50 μM combined with Chrysin 25 μM, FIG. 10-11
  clonal inhibition in combination with Chrysin: almost complete clonal inhibition
HeLa cells; 50 μM combined with Galangin 12.5 μM, FIG. 9-10
  clonal inhibition in combination with Galangin: almost complete clonal inhibition
HeLa cells; 50 μM, administered alone, FIG. 9-11
  end point clonal assay, clonal inhibition alone: Neither of them induced any effect
HeLa cells; 50 μM, isolated, FIG. 1
  Anti-clonal effect: devoid of any significant anticlonogenic effect
HeLa cells; in association, FIG. 10-11
  synergy with Galangine, Apigenin and Chrysin: synergize
